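A five-concentration, 48-hour dose response in 96-well plates underlies each endpoint, interpolated linearly between surrounding concentrations. GI50 marks 50% less growth.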 The source made the active and inactive calls. Cut-off read from the data, not from the text of the source: active = GI50 up to about 1.1 µM and inactive = higher.
Columns and labels:
Assay in all cases: DTP human tumour cell line panel, 48 h
A549 = tested on: A549
HT-29 = tested on: HT-29
SF-295 = tested on: SF-295
IGROV-1 = tested on: IGROV-1
NCI-H460 = tested on: NCI-H460
COLO 205 = tested on: COLO 205
SK-MEL-2 = tested on: SK-MEL-2
HCC 2998 = tested on: HCC 2998
DMS-114 = tested on: DMS-114
SK-OV-3 = tested on: SK-OV-3
HOP-92 = tested on: HOP-92
SF-539 = tested on: SF-539
KM12 = tested on: KM12
UACC-257 = tested on: UACC-257
OVCAR-8 = tested on: OVCAR-8
RPMI-8226 = tested on: RPMI-8226
SNB-19 = tested on: SNB-19
SNB-75 = tested on: SNB-75
MDA-MB-231 = tested on: MDA-MB-231
DU-145 = tested on: DU-145

Measured: GI50

Clc1ccc(CN2COc3c(cc(Cl)c4cccnc34)C2)cc1
inactive: A549 2.39 µM | HT-29 11.9 µM | SF-295 2.52 µM | IGROV-1 2.36 µM | NCI-H460 2.29 µM | COLO 205 16.2 µM | SK-MEL-2 1.85 µM | HCC 2998 4.3 µM | DMS-114 1.84 µM | SK-OV-3 2.77 µM | HOP-92 3.64 µM | SF-539 2.03 µM | KM12 2.37 µM | UACC-257 2.84 µM | OVCAR-8 2.04 µM | RPMI-8226 1.16 µM | SNB-19 4.24 µM | SNB-75 3.4 µM

COC(=O)C1C(O)CC(c2ccccn2)N(Cc2ccccc2)C1c1ccccn1 (centres undefined)
inactive: A549 > 100 µM | HT-29 > 100 µM | SF-295 > 100 µM | IGROV-1 > 100 µM | NCI-H460 > 100 µM | COLO 205 > 100 µM | SK-MEL-2 > 100 µM | HCC 2998 > 100 µM | DMS-114 > 100 µM | SK-OV-3 > 100 µM | HOP-92 > 100 µM | SF-539 > 100 µM | KM12 > 100 µM | UACC-257 > 100 µM | OVCAR-8 > 100 µM | RPMI-8226 23.4 µM | SNB-19 > 100 µM | SNB-75 > 100 µM

Cc1ccc(Nc2ccc(Nc3ccc(C)cc3)c3c2C(=O)c2c(O)ccc(O)c2C3=O)cc1
inactive: A549 > 100 µM | SF-295 > 100 µM | IGROV-1 > 100 µM | NCI-H460 > 100 µM | COLO 205 > 100 µM | SK-MEL-2 > 100 µM | HCC 2998 > 100 µM | DMS-114 > 100 µM | SK-OV-3 > 100 µM | HOP-92 > 100 µM | SF-539 66.2 µM | KM12 > 100 µM | UACC-257 > 100 µM | OVCAR-8 > 100 µM | RPMI-8226 > 100 µM | SNB-19 > 100 µM | SNB-75 68.4 µM

O=C(O)CCSC(=S)Nc1ccc([N+](=O)[O-])cc1
inactive: A549 > 83.2 µM | HT-29 > 94 µM | SF-295 40.5 µM | IGROV-1 42.9 µM | NCI-H460 > 82.6 µM | COLO 205 97.9 µM | SK-MEL-2 > 61.4 µM | HCC 2998 > 89.9 µM | DMS-114 37.7 µM | SK-OV-3 > 100 µM | HOP-92 29.9 µM | MDA-MB-231 > 100 µM | SF-539 39.5 µM | KM12 > 80.2 µM | UACC-257 22.3 µM | OVCAR-8 36.6 µM | RPMI-8226 27.3 µM | DU-145 43.6 µM | SNB-19 > 81.8 µM | SNB-75 33.4 µM

CCc1cccc(CC)c1NC(=O)/C(Cl)=C(/Cl)C(=O)O
inactive: A549 > 69.5 µM | HT-29 35 µM | SF-295 > 100 µM | IGROV-1 32.2 µM | NCI-H460 > 100 µM | COLO 205 13.9 µM | SK-MEL-2 > 100 µM | HCC 2998 > 48.2 µM | DMS-114 23.2 µM | SK-OV-3 > 100 µM | HOP-92 21.7 µM | SF-539 33 µM | KM12 > 100 µM | UACC-257 24.1 µM | OVCAR-8 18.4 µM | RPMI-8226 32.1 µM | SNB-19 > 100 µM | SNB-75 43.9 µM

COC(=O)C(C(=O)C(=O)Nc1cccc(OC)c1)c1cnc2ccccc2n1 (centres undefined)
inactive: A549 66.8 µM | HT-29 > 100 µM | SF-295 > 100 µM | IGROV-1 > 100 µM | NCI-H460 > 100 µM | COLO 205 > 100 µM | SK-MEL-2 > 100 µM | HCC 2998 > 100 µM | DMS-114 > 100 µM | SK-OV-3 > 100 µM | HOP-92 > 100 µM | SF-539 > 100 µM | KM12 > 100 µM | UACC-257 > 100 µM | OVCAR-8 > 100 µM | RPMI-8226 > 100 µM | SNB-19 > 100 µM | SNB-75 > 100 µM

Source: ChEMBL document CHEMBL1201862, “PubChem BioAssay data set” (2004)
